PubChem BioAssay AID248 (DTP/NCI, 2004)
“And” between values parts separate entries of the source, which are not always exact repeats. Equal values may be shown once. Toxic doses and inconclusive results are not listed. No stated cut-off is given here; in the data, active means T/C of 150% or more; inactive means T/C below 125%. Peptide text beside a SMILES is read from it. * marks the point of attachment. Boc = CC(C)(C)OC(=O)*; Bn = c1ccc(C*)cc1

Test system: L1210 leukemia ip in BDF1 mice, survival T/C
Test: NCI In Vivo Anticancer Drug Screen. Data for tumor model L1210 Leukemia (intraperitoneal) in B6D2F1 (BDF1) mice
Details: endpoint: mean survival time, higher = longer survival
Method in brief: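 In this screen, tumor-bearing mice given compound are compared to those given vehicle, and their survival values are reported as a treated-to-control quotient.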

[1] = dose: 100.0 mg/kg/injection, schedule: Q01DX009 (ip), vehicle: saline
[2] = dose: 100.0 mg/kg/injection, schedule: Q04DX003 (ip), vehicle: saline with Tween-80
[3] = dose: 200.0 mg/kg/injection, schedule: Q04DX003 (ip), vehicle: saline with Tween-80
[4] = dose: 400.0 mg/kg/injection, schedule: Q04DX003 (ip), vehicle: saline with Tween-80
[5] = dose: 100.0 mg/kg/injection, schedule: Q01DX009 (ip), vehicle: saline with Tween-80
[6] = dose: 200.0 mg/kg/injection, schedule: Q01DX009 (ip), vehicle: saline with Tween-80
[7] = dose: 50.0 mg/kg/injection, schedule: Q04DX003 (ip), vehicle: saline
[8] = dose: 100.0 mg/kg/injection, schedule: Q04DX003 (ip), vehicle: saline
[9] = dose: 200.0 mg/kg/injection, schedule: Q04DX003 (ip), vehicle: saline
[10] = dose: 100.0 mg/kg/injection, schedule: Q04DX002 (ip), vehicle: Klucel (hydroxypropylcellulose) (HPC)
[11] = dose: 200.0 mg/kg/injection, schedule: Q04DX002 (ip), vehicle: Klucel (hydroxypropylcellulose) (HPC)
[12] = dose: 400.0 mg/kg/injection, schedule: Q04DX002 (ip), vehicle: Klucel (hydroxypropylcellulose) (HPC)
[13] = dose: 100.0 mg/kg/injection, schedule: Q01DX001 (ip), vehicle: carboxymethylcellulose (CMC)
[14] = dose: 200.0 mg/kg/injection, schedule: Q01DX001 (ip), vehicle: carboxymethylcellulose (CMC)
[15] = dose: 50.0 mg/kg/injection, schedule: Q01DX009 (ip), vehicle: saline
[16] = dose: 75.0 mg/kg/injection, schedule: Q01DX001 (ip), vehicle: saline

Measured: T/C

C=CNC(=O)Oc1ccccc1
inactive: dose: 100.0 mg/kg/injection, schedule: Q01DX001 (ip), vehicle: other 96 % of control | dose: 200.0 mg/kg/injection, schedule: Q01DX001 (ip), vehicle: other 100 % of control | dose: 400.0 mg/kg/injection, schedule: Q01DX001 (ip), vehicle: other 91 % of control

CCOC(=O)C(C)P(=O)(OCC)OCC (configuration not stated)
inactive: [1] 112 % of control | dose: 200.0 mg/kg/injection, schedule: Q01DX009 (ip), vehicle: saline 104 % of control | dose: 400.0 mg/kg/injection, schedule: Q01DX009 (ip), vehicle: saline 109 % of control

CCCCCCCCCCCCCCCc1cccc2ccccc12
inactive: [2] 92 % of control | [3] 92 % of control | [4] 88 % of control

CN1C2CCC1CC(OC(=O)c1ccc(O)cc1)C2 (configuration not stated)
inactive: dose: 9.38 mg/kg/injection, schedule: Q01DX001 (ip), vehicle: saline 94 % of control | dose: 18.75 mg/kg/injection, schedule: Q01DX001 (ip), vehicle: saline 102 % of control

O=C(N1CCN=C1C(Cl)(Cl)Cl)C(Cl)(Cl)Cl
inactive: [2] 100 % of control | [3] 102 % of control | [4] 102 % of control

CC(=O)Nc1ccc(/C=C/C(=O)c2ccc(Cl)cc2)cc1
inactive: [5] 102 % of control | [2] 100 % of control | [6] 89 % of control | [3] 87 % of control | dose: 400.0 mg/kg/injection, schedule: Q01DX009 (ip), vehicle: saline with Tween-80 91 % of control | [4] 90 % of control

CCCCS(=O)CC(O)(c1ccccc1)c1ccccc1 (configuration not stated)
inactive: dose: 100.0 mg/kg/injection, schedule: Q03DX002 (ip), vehicle: saline with Tween-80 102 % of control | dose: 200.0 mg/kg/injection, schedule: Q03DX002 (ip), vehicle: saline with Tween-80 105 % of control

CC(C)(C)OC(=O)NC(CO)C(=O)NC(Cc1ccc(OCc2ccccc2)cc1)C(=O)NCC(=O)O (stereo not drawn) (Boc-Ser-Tyr(Bn)-Gly-OH; configuration not given here)
inactive: dose: 50.0 mg/kg/injection, schedule: Q01DX005 (ip), vehicle: saline 100 % of control | dose: 200.0 mg/kg/injection, schedule: Q01DX005 (ip), vehicle: saline 105 % of control | dose: 400.0 mg/kg/injection, schedule: Q01DX005 (ip), vehicle: saline 91 % of control

[C-]#[N+]C1(C)CC1(c1ccccc1)c1ccccc1 (configuration not stated)
inactive: [7] 103 % of control | [8] 110 % of control | [9] 95 % of control

C=C(C)COc1ccc(C(=O)c2ccccc2)cc1
inactive: [10] 103 % of control | [11] 100 % of control | [12] 94 % of control

Clc1ccc([I+]c2ccc(Cl)c(Cl)c2)cc1Cl
inactive: dose: 4.0 mg/kg/injection, schedule: Q01DX015 (ip), vehicle: carboxymethylcellulose (CMC) 98 % of control | dose: 8.0 mg/kg/injection, schedule: Q01DX015 (ip), vehicle: carboxymethylcellulose (CMC) 96 % of control | dose: 16.0 mg/kg/injection, schedule: Q01DX015 (ip), vehicle: carboxymethylcellulose (CMC) 87 % of control | dose: 32.0 mg/kg/injection, schedule: Q01DX015 (ip), vehicle: carboxymethylcellulose (CMC) 96 % of control | [13] 95 % of control | [14] 106 % of control | dose: 400.0 mg/kg/injection, schedule: Q01DX001 (ip), vehicle: carboxymethylcellulose (CMC) 111 % of control

OC1CN(C2CCCCC2)C1
inactive: [8] 98 % of control

CN1CCN(Cc2nc3cccc4c3c([n+]2[O-])-c2ccccc2-4)CC1
inactive: dose: 12.5 mg/kg/injection, schedule: Q01DX009 (ip), vehicle: saline with Tween-80 101 % of control | dose: 25.0 mg/kg/injection, schedule: Q01DX009 (ip), vehicle: saline with Tween-80 105 % of control | dose: 50.0 mg/kg/injection, schedule: Q01DX009 (ip), vehicle: saline with Tween-80 103 % of control | [5] 114 % of control | [6] 123 % of control

CC(=O)Nc1ccc(I)cc1C(=O)O
inactive: dose: 50.0 mg/kg/injection, schedule: Q01DX001 (ip), vehicle: carboxymethylcellulose (CMC) 96 % of control | [13] 91 % of control | [14] 91 % of control

Nc1ccc(OCCNS(=O)(=O)c2cccc(S(=O)(=O)F)c2)c(Cl)c1
inactive: [15] 97 % of control | [1] 102 % of control | [8] 97 % of control | [9] 97 % of control

CN(C)N=Nc1cn(C)c(=O)n(C)c1=O
inactive: dose: 150.0 mg/kg/injection, schedule: Q04DX003 (ip), vehicle: water 106 % of control

CCNC(C)C
inactive: dose: 25.0 mg/kg/injection, schedule: Q01DX009 (ip), vehicle: saline 98 % of control | dose: 25.0 mg/kg/injection, schedule: Q04DX003 (ip), vehicle: saline 92 % of control | [15] 93 % of control | [7] 97 % of control | [1] 98 % of control | [8] 95 % of control and 107 % of control

CNC(=O)c1cc(C(=O)NC)c[n+](Cc2c(Cl)cccc2Cl)c1
inactive: dose: 18.75 mg/kg/injection, schedule: Q01DX009 (ip), vehicle: saline 92 % of control | dose: 37.5 mg/kg/injection, schedule: Q01DX009 (ip), vehicle: saline 103 % of control | dose: 37.5 mg/kg/injection, schedule: Q04DX003 (ip), vehicle: saline 100 % of control | [16] 96 % of control | dose: 75.0 mg/kg/injection, schedule: Q01DX009 (ip), vehicle: saline 100 % of control | dose: 75.0 mg/kg/injection, schedule: Q04DX003 (ip), vehicle: saline 105 % of control | dose: 150.0 mg/kg/injection, schedule: Q01DX001 (ip), vehicle: saline 98 % of control | dose: 150.0 mg/kg/injection, schedule: Q04DX003 (ip), vehicle: saline 97 % of control

S=C(NCCN1CCCC1)Nc1ccccc1
inactive: dose: 25.0 mg/kg/injection, schedule: Q01DX009 (ip), vehicle: Klucel (hydroxypropylcellulose) (HPC) 119 % of control | dose: 50.0 mg/kg/injection, schedule: Q01DX009 (ip), vehicle: Klucel (hydroxypropylcellulose) (HPC) 104 % of control | dose: 100.0 mg/kg/injection, schedule: Q01DX009 (ip), vehicle: Klucel (hydroxypropylcellulose) (HPC) 97 % of control and 114 % of control

CCC(CC)N=C(N)N
inactive: [8] 93 % of control

CN1CC(N(C)C)CCC/C=C\C1=O (configuration not stated)
inactive: [16] 102 % of control

CC1(O)CCCCCCC1
inactive: dose: 50.0 mg/kg/injection, schedule: Q01DX001 (ip), vehicle: saline 102 % of control | dose: 100.0 mg/kg/injection, schedule: Q01DX001 (ip), vehicle: saline 93 % of control | dose: 200.0 mg/kg/injection, schedule: Q01DX001 (ip), vehicle: saline 91 % of control

O=[N+]([O-])c1cc(Br)ccc1N1CCCC1
inactive: [8] 88 % of control | [9] 101 % of control | dose: 400.0 mg/kg/injection, schedule: Q04DX003 (ip), vehicle: saline 93 % of control

CN(C)c1ccc(N=C(C#N)C#N)cc1
inactive: dose: 75.0 mg/kg/injection, schedule: Q01DX001 (ip), vehicle: other 89 % of control | dose: 150.0 mg/kg/injection, schedule: Q01DX001 (ip), vehicle: other 95 % of control

NC(=O)NC(=O)NCc1ccccc1
inactive: [10] 98 % of control | [11] 94 % of control | [12] 94 % of control
